For one test, the system named is TNFα. The experiment in a line: Cot Monocyte TNFα Cell Based Assay.
The target of another test is Human Cot (Homo sapiens (Human), UniProt P41279). The experiment in a line: High Throughput Cot Biochemical Assay. Conditions: Cot HTRF (TR-FRET) biochemical assay. For orientation: In TR-FRET formats the signal depends on donor and acceptor labels being close together.
[1] abbreviates: Homo sapiens, Monocyte, read-out: EC50 TNF, LPS-stimulated human monocytes, TNFα.
Where [2] appears, read: read-out: EC50 TNF, LPS-stimulated human monocytes, TNFα.

From US11066414B2, “Cot modulators and methods of use thereof” (Gilead Sciences, Inc., priority 2015, dated 2021) come the findings set out here.

pEC50, pIC50: −log10 of the molar value. Read-outs that look alike come from different tables or passages of the source.

By pEC50 is commonly meant the negative decadic logarithm of the EC50, by convention in mol/L. Broadly, the pIC50 is the negative decadic logarithm of the IC50, by convention in mol/L.

Human Cot, sequence (P41279 30-397): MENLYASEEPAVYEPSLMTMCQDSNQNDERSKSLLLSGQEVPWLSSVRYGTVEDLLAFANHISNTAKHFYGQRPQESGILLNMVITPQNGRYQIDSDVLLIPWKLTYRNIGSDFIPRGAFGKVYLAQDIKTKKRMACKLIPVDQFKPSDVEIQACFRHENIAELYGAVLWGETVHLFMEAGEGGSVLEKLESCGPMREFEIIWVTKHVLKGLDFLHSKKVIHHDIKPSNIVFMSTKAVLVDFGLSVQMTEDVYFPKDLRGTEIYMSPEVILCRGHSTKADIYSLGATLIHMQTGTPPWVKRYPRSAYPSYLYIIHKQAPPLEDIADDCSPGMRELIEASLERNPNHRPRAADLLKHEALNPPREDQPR

`C[C@@H](CF)n1cc([C@@H](Nc2cc(Cl)c3ncc(C#N)c(Nc4cnc(F)c(F)c4)c3c2)c2cccnc2)nn1` [Example 197, 8-chloro-4-((5,6-difluoropyridin-3-yl)amino)-6-(((S)-(1-((S)-1-fluoropropan-2-yl)-1H-1,2,3-triazol-4-yl)(pyridin-3-yl)methyl)amino)quinoline-3-carbonitrile]: the pEC50 in the test on TNFα (setting [1]) is 6.22. Besides, the pIC50 against Human Cot (IC50 HTRF) was 8.05.

As for `CC(C)(C)n1cc([C@@H](Nc2cc(Cl)c3ncc(C#N)c(Nc4cnc(F)c(F)c4)c3c2)c2cccnc2)nn1` [Example 198, (S)-6-(((1-(tert-butyl)-1H-1,2,3-triazol-4-yl)(pyridin-3-yl)methyl)amino)-8-chloro-4-((5,6-difluoropyridin-3-yl)amino)quinoline-3-carbonitrile], the pEC50 in the test with TNFα (setting [1]) was 6.01. The compound further had a pIC50 on Human Cot (IC50 HTRF) of 7.77.

For `N#Cc1cnc2c(Cl)cc(N[C@@H](c3cccnc3)c3cn(C4COC4)nn3)cc2c1Nc1cnc(F)c(F)c1` [Example 199, (S)-8-chloro-4-((5,6-difluoropyridin-3-yl)amino)-6-(((1-(oxetan-3-yl)-1H-1,2,3-triazol-4-yl)(pyridin-3-yl)methyl)amino)quinoline-3-carbonitrile], the pEC50 in the test on TNFα (setting [1]) was 5.60. This compound showed a pIC50 at Human Cot (IC50 HTRF) of 8.05.

Consider `N#Cc1cnc2c(Cl)cc(N[C@@H](c3cccnc3)c3cn(CCCN4CCCC4)nn3)cc2c1Nc1cnc(F)c(F)c1` [Example 200, (S)-8-chloro-4-((5,6-difluoropyridin-3-yl)amino)-6-((pyridin-3-yl(1-(3-(pyrrolidin-1-yl)propyl)-1H-1,2,3-triazol-4-yl)methyl)amino)quinoline-3-carbonitrile], for which, in the test on TNFα (setting [1]), the pEC50 was 6.25. This compound showed a pIC50 at Human Cot (IC50 HTRF) of 8.15.

`N#Cc1cnc2c(Cl)cc(N[C@@H](c3cccnc3)c3cn(C4COC4)nn3)cc2c1NC1CCOCC1` [Example 201, (S)-8-chloro-6-(((1-(oxetan-3-yl)-1H-1,2,3-triazol-4-yl)(pyridin-3-yl)methyl)amino)-4-((tetrahydro-2H-pyran-4-yl)amino)quinoline-3-carbonitrile]: the pEC50 in the test on TNFα (setting [1]) was 5.25. At Human Cot (IC50 HTRF), this compound gave a pIC50 of 7.25.

On to `CC(C)n1cc([C@@H](Nc2cc(Cl)c3ncc(C#N)c(N[C@H](c4ccccc4)C(C)(C)O)c3c2)c2cccnc2)nn1` [Example 202, 8-chloro-4-(((R)-2-hydroxy-2-methyl-1-phenylpropyl)amino)-6-(((S)-(1-isopropyl-1H-1,2,3-triazol-4-yl)(pyridin-3-yl)methyl)amino)quinoline-3-carbonitrile], for which the pEC50 in the test with TNFα (setting [1]) was under 5.00. In addition, the pIC50 at Human Cot (IC50 HTRF) was under 5.00.

For the compound `COC[C@H](Nc1c(C#N)cnc2c(Cl)cc(N[C@@H](c3cccnc3)c3c[nH]nn3)cc12)c1ccccc1` [Example 203, 8-chloro-4-(((R)-2-methoxy-1-phenylethyl)amino)-6-(((S)-pyridin-3-yl(1H-1,2,3-triazol-4-yl)methyl)amino)quinoline-3-carbonitrile], the pEC50 in the test on TNFα (setting [1]) is 5.04. Besides, the pIC50 at Human Cot (IC50 HTRF) is 5.16.

Regarding `COC[C@H](Nc1c(C#N)cnc2c(Cl)cc(N[C@@H](c3cccnc3)c3cn(C(C)C)nn3)cc12)c1ccccc1` [Example 204, 8-chloro-6-(((S)-(1-isopropyl-1H-1,2,3-triazol-4-yl)(pyridin-3-yl)methyl)amino)-4-(((R)-2-methoxy-1-phenylethyl)amino)quinoline-3-carbonitrile], the pEC50 in the test on TNFα (setting [1]) is under 5.00. Also, the pIC50 on Human Cot (IC50 HTRF) was 5.07.

`C[C@@H](n1cc([C@@H](Nc2cc(Cl)c3ncc(C#N)c(Nc4cnc(F)c(F)c4)c3c2)c2cccnc2)nn1)C(F)(F)F` [Example 205, 8-chloro-4-((5,6-difluoropyridin-3-yl)amino)-6-(((S)-pyridin-3-yl(1-((R)-1,1,1-trifluoropropan-2-yl)-1H-1,2,3-triazol-4-yl)methyl)amino)quinoline-3-carbonitrile]: the pEC50 in the test on TNFα (setting [1]) was 5.69. The compound further had a pIC50 against Human Cot (IC50 HTRF) of 7.14.

For the compound `N#Cc1cnc2c(Cl)cc(N[C@@H](c3cccnc3)c3c[nH]nn3)cc2c1Nc1cnc(F)c(F)c1` [Example 207, (S)-8-chloro-4-((5,6-difluoropyridin-3-yl)amino)-6-((pyridin-3-yl(1H-1,2,3-triazol-4-yl)methyl)amino)quinoline-3-carbonitrile], in the test with TNFα (setting [1]), the pEC50 was 6.03. This compound also gave a pIC50 against Human Cot (IC50 HTRF) of 8.30.

In the case of `N#Cc1cnc2c(Cl)cc(N[C@@H](C3=CCOCC3)c3cn(C4COC4)nn3)cc2c1Nc1ccc(Cl)c(Cl)c1F` [Example 210, (S)-8-chloro-4-((3,4-dichloro-2-fluorophenyl)amino)-6-(((3,6-dihydro-2H-pyran-4-yl)(1-(oxetan-3-yl)-1H-1,2,3-triazol-4-yl)methyl)amino)quinoline-3-carbonitrile], the pEC50 with TNFα (setting [1]) is 6.37. The compound further showed a pIC50 on Human Cot (IC50 HTRF) of 8.00.

`N#Cc1cnc2c(Cl)cc(N[C@@H](C3=CCOCC3)c3c[nH]nn3)cc2c1Nc1ccc(Cl)c(Cl)c1F` [Example 211, (S)-8-chloro-4-((3,4-dichloro-2-fluorophenyl)amino)-6-(((3,6-dihydro-2H-pyran-4-yl)(1H-1,2,3-triazol-4-yl)methyl)amino)quinoline-3-carbonitrile]: the pEC50 in the test with TNFα (setting [1]) was 6.26. At Human Cot (IC50 HTRF), this compound showed a pIC50 of 7.80.

On to `CC[C@@H](Nc1c(C#N)cnc2c(Cl)cc(N[C@@H](c3cccnc3)c3cn(CC[N+](C)(CC)CC)nn3)cc12)c1ccccc1` [Example 212, 2-(4-((S)-((8-chloro-3-cyano-4-(((R)-1-phenylpropyl)amino)quinolin-6-yl)amino)(pyridin-3-yl)methyl)-1H-1,2,3-triazol-1-yl)-N,N-diethyl-N-methylethan-1-aminium], for which the pEC50 in the test on TNFα (setting [1]) was 5.04. For the same compound, the pIC50 at Human Cot (IC50 HTRF) was 7.36.

For `N#Cc1cnc2c(Cl)cc(N[C@@H](c3cocn3)c3c[nH]nn3)cc2c1N[C@@H](CO)c1ccccc1` [Example 214, 8-chloro-4-(((R)-2-hydroxy-1-phenylethyl)amino)-6-(((S)-o)(azol-4-yl(1H-1,2,3-triazol-4-yl)methyl)amino)quinoline-3-carbonitrile], the pEC50 in the test with TNFα (setting [2]) is under 5.00. In addition, the pIC50 at Human Cot (read-out: IC50 HTRF) was under 5.00.

As to `N#Cc1cnc2c(Cl)cc(N[C@@H](c3cocn3)c3c[nH]nn3)cc2c1N[C@H](CO)c1ccccc1` [Example 215, 8-chloro-4-(((S)-2-hydroxy-1-phenylethyl)amino)-6-(((S)-o)(azol-4-yl(1H-1,2,3-triazol-4-yl)methyl)amino)quinoline-3-carbonitrile], the pEC50 with TNFα (setting [2]) was under 5.00. At Human Cot (read-out: IC50 HTRF), the pIC50 is 6.59.

As for `Cn1nccc1[C@H](Nc1cc(Cl)c2ncc(C#N)c(Nc3ccc(Cl)c(Cl)c3F)c2c1)c1c[nH]nn1` [Example 216, (S)-8-chloro-4-((3,4-dichloro-2-fluorophenyl)amino)-6-(((1-methyl-1H-pyrazol-5-yl)(1H-1,2,3-triazol-4-yl)methyl)amino)quinoline-3-carbonitrile], the pEC50 in the test on TNFα (setting [1]) was 5.93. The compound also had a pIC50 on Human Cot (IC50 HTRF) of 7.42.

With `Cc1ncccc1[C@H](Nc1cc(Cl)c2ncc(C#N)c(N[C@H](CO)c3ccccc3)c2c1)c1c[nH]nn1` [Example 218, 8-chloro-4-(((S)-2-hydroxy-1-phenylethyl)amino)-6-(((S)-(2-methylpyridin-3-yl)(1H-1,2,3-triazol-4-yl)methyl)amino)quinoline-3-carbonitrile], the pEC50 in the test with TNFα (setting [1]) is 5.57. The compound also had a pIC50 at Human Cot (IC50 HTRF) of 7.59.

In the case of `Cc1ncccc1[C@H](Nc1cc(Cl)c2ncc(C#N)c(N[C@@H](CO)c3ccccc3)c2c1)c1c[nH]nn1` [Example 219, 8-chloro-4-(((R)-2-hydroxy-1-phenylethyl)amino)-6-(((S)-(2-methylpyridin-3-yl)(1H-1,2,3-triazol-4-yl)methyl)amino)quinoline-3-carbonitrile], the pEC50 with TNFα (setting [1]) was under 5.00. The compound also gave a negative logarithm of the IC50 (pIC50) against Human Cot (IC50 HTRF) of 5.35.

For the compound `CC[C@@H](Nc1c(C#N)cnc2c(Cl)cc(N[C@H](c3c[nH]nn3)c3cccnc3C)cc12)c1ccccc1` [Example 220, 8-chloro-6-(((S)-(2-methylpyridin-3-yl)(1H-1,2,3-triazol-4-yl)methyl)amino)-4-(((R)-1-phenylpropyl)amino)quinoline-3-carbonitrile], the pEC50 in the test with TNFα (setting [1]) was 6.46. Further, on Human Cot (IC50 HTRF), the pIC50 is 8.40.

Turning to `CC[C@@H](Nc1c(C#N)cnc2c(Cl)cc(N[C@H](c3cn(C4CCN(C(C)(C)C)CC4)nn3)c3cccnc3C)cc12)c1ccccc1` [Example 221, 6-(((S)-(1-(1-(tert-butyl)piperidin-4-yl)-1H-1,2,3-triazol-4-yl)(2-methylpyridin-3-yl)methyl)amino)-8-chloro-4-(((R)-1-phenylpropyl)amino)quinoline-3-carbonitrile], in the test with TNFα (setting [1]), the pEC50 was 7.55. The pIC50 on Human Cot (IC50 HTRF) was 8.70.

For the compound `N#Cc1cnc2c(Cl)cc(N[C@H](c3c[nH]nn3)c3csc4c3CCN(C3COC3)C4)cc2c1Nc1ccc(Cl)c(Cl)c1F` [Example 222, (S)-8-chloro-4-((3,4-dichloro-2-fluorophenyl)amino)-6-(((6-(oxetan-3-yl)-4,5,6,7-tetrahydrothieno[2,3-c]pyridin-3-yl)(1H-1,2,3-triazol-4-yl)methyl)amino)quinoline-3-carbonitrile], the pEC50 in the test with TNFα (setting [1]) was 6.13. Further, at Human Cot (IC50 HTRF), the pIC50 is 7.72.

Regarding `CC(C)(C)N1CCC(n2cc([C@@H](Nc3cc(Cl)c4ncc(C#N)c(Nc5ccc(Cl)c(Cl)c5F)c4c3)c3csc4c3CCN(C3COC3)C4)nn2)CC1` [Example 223, (S)-6-(((1-(1-(tert-butyl)piperidin-4-yl)-1H-1,2,3-triazol-4-yl)(6-(oxetan-3-yl)-4,5,6,7-tetrahydrothieno[2,3-c]pyridin-3-yl)methyl)amino)-8-chloro-4-((3,4-dichloro-2-fluorophenyl)amino)quinoline-3-carbonitrile], the pEC50 in the test on TNFα (setting [1]) is 7.03. The same compound showed a negative-log IC50 (pIC50) at Human Cot (IC50 HTRF) of 8.15.

Regarding `Cc1ncccc1[C@H](Nc1cc(Cl)c2ncc(C#N)c(Nc3cccc(Cl)c3)c2c1)c1cn(C(C)C)nn1` [Example 225, (S)-8-chloro-4-((3-chlorophenyl)amino)-6-(((1-isopropyl-1H-1,2,3-triazol-4-yl)(2-methylpyridin-3-yl)methyl)amino)quinoline-3-carbonitrile], the pEC50 with TNFα (setting [1]) is 5.83. Besides, on Human Cot (IC50 HTRF), the pIC50 is 8.00.
